We go through one molecule from ChEMBL document CHEMBL4680318, “(S)-Erypoegin K, an isoflavone isolated from Erythrina poeppigiana, is a novel inhibitor of topoisomerase IIα: Induction of G2 phase arrest in human gastric cancer cells” (Bioorg Med Chem, 2021).

One may read the GI50 as the concentration giving 50% growth inhibition. Read a low GI50 as more potent growth inhibition.

Test [1] deals with GCIY. The test is described as follows: Cell cycle arrest in human GCIY cells assessed as accumulation at S phase at 0.1 uM measured after 24 hrs by propidium iodide staining based Muse cell analyzer (reference value: 25.7 +/- 0.7 %). The class given is functional.
The test system of the next test is HCT-116. The experiment in a line: Growth inhibition of human HCT-116 cells measured after 48 hrs by sulforhodamine B assay. The class given is functional. A general note: In SRB staining, fixed cells bind dye roughly in proportion to their protein.
The subject of test [2] is MKN-1. The test is described as follows: Cell cycle arrest in human MKN-1 cells assessed as accumulation at S phase at 0.1 uM measured after 24 hrs by propidium iodide staining based Muse cell analyzer (reference value: 15.5 +/- 0.2 %). The class given is functional.
A further test deals with HCC 2998. The test is described as follows: Growth inhibition of human HCC 2998 cells measured after 48 hrs by sulforhodamine B assay. The class given is functional.
The next test relates to PC-3. The experiment in a line: Growth inhibition of human PC-3 cells measured after 48 hrs by sulforhodamine B assay. The class given is functional.
A further test deals with DMS-114. The experiment in a line: Growth inhibition of human DMS-114 cells measured after 48 hrs by sulforhodamine B assay. The class given is functional.
Another test deals with NCI-H522. The experiment in a line: Growth inhibition of human NCI-H522 cells measured after 48 hrs by sulforhodamine B assay. The class given is functional.
For a further test, the system named is DMS-273. The experiment in a line: Growth inhibition of human DMS-273 cells measured after 48 hrs by sulforhodamine B assay. The class given is functional.
A further test relates to LOX IMVI. The experiment in a line: Growth inhibition of human LOX IMVI cells measured after 48 hrs by sulforhodamine B assay. The class given is functional.
In test [3] the test system is GCIY. The test is described as follows: Cell cycle arrest in human GCIY cells assessed as accumulation at G2/M phase at 0.1 uM measured after 24 hrs by propidium iodide staining based Muse cell analyzer (reference value: 28.9 +/- 1.3 %). The class given is functional.
The subject of test [4] is MKN-1. The test is described as follows: Induction of apoptosis in human MKN-1 cells assessed as activation of caspase 9 measured after 5 to 35 hrs by fluorescence assay. The class given is functional, cell-based. The conditions noted are these: dose 1-10 µM, time 5-35 hrs.
Test [5] concerns MKN-1. The test is described as follows: Cell cycle arrest in human MKN-1 cells assessed as accumulation at S phase at 0.3 uM measured after 24 hrs by propidium iodide staining based Muse cell analyzer (reference value: 15.5 +/- 0.2 %). The class given is functional.
Test [6] concerns MKN-1. The experiment in a line: Induction of apoptosis in human MKN-1 cells assessed as activation of caspase 3 at 1 to 10 uM by fluorescence assay. The class given is functional, cell-based. The conditions noted are these: dose 1-10 µM, time 5-35 hrs, TDE = time-dependent effect.
Test [7] addresses DNA topoisomerase 2-alpha (Homo sapiens) (UniProt P11388). The test is described as follows: Inhibition of human DNA topoisomerase 2alpha assessed as stabilization of DNA cleavage complex at 50 to 200 uM using supercoiled pSL1180 plasmid DNA as substrate measured after 30 mins by ethidium bromide staining-based UV imaging analysis. The settings on record: dose 50-200 µM.
The subject of a further test is SNB-78. The experiment in a line: Growth inhibition of human SNB-78 cells measured after 48 hrs by sulforhodamine B assay. The class given is functional.
The subject of another test is NCI-H460. The test is described as follows: Growth inhibition of human NCI-H460 cells measured after 48 hrs by sulforhodamine B assay. The class given is functional.
The subject of test [8] is GCIY. The test is described as follows: Induction of apoptosis in human GCIY cells assessed as activation of caspase 9 at 1 to 10 uM by fluorescence assay. The class given is functional, cell-based. The conditions noted are these: dose 1-10 µM, time 5-35 hrs, TDE = time-dependent effect.
Test [9] deals with GCIY. The experiment in a line: Antitumor activity against human GCIY cells xenografted in KSN/Slc nude mouse assessed as reduction in tumor size at 40 mg/kg, ip administered twice a week for 4 weeks starting from day 4 post inoculation by vernier caliper method. The class given is functional, organism-based.
Test [10] is described as follows: Growth inhibition of human BSY1 cells measured after 48 hrs by sulforhodamine B assay. The class given is functional. The settings on record: BSY-1.

Active and inactive are the calls of the source. The rule behind the calls is not given here.

DNA topoisomerase 2-alpha (Homo sapiens), sequence (P11388 whole entry): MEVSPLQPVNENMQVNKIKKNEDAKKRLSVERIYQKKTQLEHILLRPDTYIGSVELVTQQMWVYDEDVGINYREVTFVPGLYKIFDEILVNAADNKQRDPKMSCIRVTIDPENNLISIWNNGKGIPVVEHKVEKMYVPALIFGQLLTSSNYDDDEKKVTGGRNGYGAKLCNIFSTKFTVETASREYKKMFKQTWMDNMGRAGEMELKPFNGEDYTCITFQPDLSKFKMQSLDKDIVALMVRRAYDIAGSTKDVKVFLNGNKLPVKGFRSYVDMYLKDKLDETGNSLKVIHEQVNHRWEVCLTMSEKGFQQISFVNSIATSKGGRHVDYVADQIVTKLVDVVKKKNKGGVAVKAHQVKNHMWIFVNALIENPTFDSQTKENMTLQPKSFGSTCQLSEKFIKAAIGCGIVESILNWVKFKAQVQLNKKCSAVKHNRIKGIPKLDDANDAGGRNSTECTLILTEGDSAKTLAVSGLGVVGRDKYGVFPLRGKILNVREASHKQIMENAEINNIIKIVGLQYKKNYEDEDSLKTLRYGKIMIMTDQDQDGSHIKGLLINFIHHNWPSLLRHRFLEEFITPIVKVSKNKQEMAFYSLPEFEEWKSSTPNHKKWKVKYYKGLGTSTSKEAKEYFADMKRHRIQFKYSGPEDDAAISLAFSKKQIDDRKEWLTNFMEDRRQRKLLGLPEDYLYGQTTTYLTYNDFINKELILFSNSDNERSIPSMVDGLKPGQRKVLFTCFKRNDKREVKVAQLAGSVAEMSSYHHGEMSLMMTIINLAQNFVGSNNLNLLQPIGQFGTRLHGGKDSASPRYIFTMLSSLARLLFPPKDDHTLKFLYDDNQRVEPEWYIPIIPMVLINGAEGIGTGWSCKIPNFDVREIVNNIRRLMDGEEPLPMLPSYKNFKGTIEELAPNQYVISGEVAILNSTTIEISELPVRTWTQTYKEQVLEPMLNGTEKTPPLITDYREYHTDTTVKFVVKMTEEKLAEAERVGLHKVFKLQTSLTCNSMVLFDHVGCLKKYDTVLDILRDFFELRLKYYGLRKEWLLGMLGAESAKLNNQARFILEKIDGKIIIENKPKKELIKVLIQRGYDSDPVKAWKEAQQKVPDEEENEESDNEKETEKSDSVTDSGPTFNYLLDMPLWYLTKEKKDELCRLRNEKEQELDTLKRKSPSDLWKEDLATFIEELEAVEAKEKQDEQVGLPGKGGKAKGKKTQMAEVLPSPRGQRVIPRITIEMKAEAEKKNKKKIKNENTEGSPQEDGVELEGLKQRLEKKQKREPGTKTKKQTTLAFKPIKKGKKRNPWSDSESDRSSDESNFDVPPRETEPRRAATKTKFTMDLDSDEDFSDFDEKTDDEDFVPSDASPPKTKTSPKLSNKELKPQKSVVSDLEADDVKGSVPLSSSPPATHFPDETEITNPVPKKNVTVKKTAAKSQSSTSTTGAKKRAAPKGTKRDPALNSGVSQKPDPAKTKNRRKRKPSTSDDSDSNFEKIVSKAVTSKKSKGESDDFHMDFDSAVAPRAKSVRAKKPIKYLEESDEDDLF

For `CC(C)(O)[C@@H]1Cc2c(cc(O)c3c(=O)c(-c4ccc(O)cc4)coc23)O1`, the Activity was 22.4% in the test on GCIY [1]; 12.3% in the test on MKN-1 [2]; 40.4% in the test on GCIY [3]; “Dose-dependent effect” with MKN-1 [4]; 9.5% in the test on MKN-1 [5]; “Tde” in the test with MKN-1 [6]. In addition, the Activity result in the test with GCIY [8] is “Tde”. Also, the GI50 in the test with HCT-116 was 1070 nM; in the test with HCC 2998, 2040 nM; in the test on PC-3 it was > 100000 nM; with DMS-114, 380 nM; in the test on NCI-H522, 1580 nM; in the test with DMS-273 it was 195 nM. Also, the GI50 in the test on LOX IMVI was 257 nM; in the test on SNB-78, 5890 nM; with NCI-H460, 70.8 nM; in test [10] it was 631 nM. For the same molecule, in [7], the inhibition result was “Active”. Also, the result in the test with GCIY [9] was Active.
